{
  "source": "PubChem BioAssay AID338",
  "about": "(DTP/NCI, 2004)",
  "system": "BDF1 mice, P388 leukemia (terephthalanilide-resistant), survival T/C",
  "assay": "NCI In Vivo Anticancer Drug Screen. Data for tumor model P388 Leukemia resistant to A Terephthalanilide; NSC 38280 (intraperitoneal) in B6D2F1 (BDF1) mice",
  "conditions": "endpoint: median survival time, schedule: Q01DX010 (ip), higher = longer survival",
  "procedure": "The antitumor activity of compounds was measured in mice bearing transplantable tumors. Survival or tumor size were measured and the results are expressed as the measurement made in the treated group (T) divided by the measurement made in the vehicle treated control group (C). The tumor model used in this assay is P388 Leukemia resistant to A Terephthalanilide; NSC 38280 (intraperitoneal) in B6D2F1 (BDF1) mice",
  "key": {"[1]": {"conditions": "dose: 60.0 mg/kg/injection, vehicle: saline"}, "[2]": {"conditions": "dose: 40.0 mg/kg/injection, vehicle: saline"}, "[3]": {"conditions": "dose: 5.0 mg/kg/injection, vehicle: saline"}, "[4]": {"conditions": "dose: 200.0 mg/kg/injection, vehicle: saline"}, "[5]": {"conditions": "dose: 10.0 mg/kg/injection, vehicle: saline"}, "[6]": {"conditions": "dose: 20.0 mg/kg/injection, vehicle: saline"}, "[7]": {"conditions": "dose: 25.0 mg/kg/injection, vehicle: saline"}, "[8]": {"conditions": "dose: 100.0 mg/kg/injection, vehicle: saline"}, "[9]": {"conditions": "dose: 6.25 mg/kg/injection, vehicle: saline"}, "[10]": {"conditions": "dose: 12.5 mg/kg/injection, vehicle: saline"}},
  "note": "Values joined by “and” are separate entries in the source; they are usually repeats but may differ in a detail not shown here. Equal values may be shown once. Toxic doses and inconclusive results are not listed.",
  "data": [
    {"smiles": "N#CCSc1ncnc2nc[nH]c12", "values": [
      {"measurement": "T/C", "setting": "dose: 15.0 mg/kg/injection, vehicle: saline", "value": "100 % of control"},
      {"measurement": "T/C", "setting": "dose: 30.0 mg/kg/injection, vehicle: saline", "value": "100 % of control"},
      {"measurement": "T/C", "setting": "[1]", "value": "105 % of control and 109 % of control"},
      {"measurement": "T/C", "setting": "dose: 120.0 mg/kg/injection, vehicle: saline", "value": "100 % of control"}
    ]},
    {"smiles": "CN(N=O)C(=O)NC(C=O)C(O)C(O)C(O)CO", "note": "(stereo unspecified)", "values": [
      {"measurement": "T/C", "setting": "dose: 27.0 mg/kg/injection, vehicle: saline", "value": "109 % of control"},
      {"measurement": "T/C", "setting": "[2]", "value": "113 % of control"},
      {"measurement": "T/C", "setting": "[1]", "value": "154 % of control"},
      {"measurement": "T/C", "setting": "dose: 90.0 mg/kg/injection, vehicle: saline", "value": "113 % of control"}
    ]},
    {"smiles": "S=P(N1CCOCC1)(N1CC1)N1CC1", "values": [
      {"measurement": "T/C", "setting": "dose: 2.5 mg/kg/injection, vehicle: saline", "value": "105 % of control and 111 % of control"},
      {"measurement": "T/C", "setting": "[3]", "value": "94 % of control and 105 % of control"}
    ]},
    {"smiles": "CN(C)CC(=O)c1ccc(O)c(O)c1", "values": [
      {"measurement": "T/C", "setting": "[4]", "value": "113 % of control"},
      {"measurement": "T/C", "setting": "dose: 300.0 mg/kg/injection, vehicle: saline", "value": "113 % of control"},
      {"measurement": "T/C", "setting": "dose: 450.0 mg/kg/injection, vehicle: saline", "value": "113 % of control"}
    ]},
    {"smiles": "CC(CCC(C)OS(C)(=O)=O)OS(C)(=O)=O", "note": "(stereo unspecified)", "values": [
      {"measurement": "T/C", "setting": "dose: 2.0 mg/kg/injection, vehicle: saline", "value": "90 % of control and 95 % of control"},
      {"measurement": "T/C", "setting": "dose: 4.0 mg/kg/injection, vehicle: saline", "value": "95 % of control and 100 % of control"},
      {"measurement": "T/C", "setting": "dose: 8.0 mg/kg/injection, vehicle: saline", "value": "100 % of control"},
      {"measurement": "T/C", "setting": "dose: 16.0 mg/kg/injection, vehicle: saline", "value": "86 % of control and 100 % of control"}
    ]},
    {"smiles": "O=c1[nH]cc(F)c(=O)[nH]1", "values": [
      {"measurement": "T/C", "setting": "[3]", "value": "120 % of control"},
      {"measurement": "T/C", "setting": "[5]", "value": "150 % of control and 183 % of control"},
      {"measurement": "T/C", "setting": "[6]", "value": "170 % of control and 222 % of control"},
      {"measurement": "T/C", "setting": "[2]", "value": "95 % of control and 111 % of control"}
    ]},
    {"smiles": "CC1CCOS(=O)O1", "note": "(stereo unspecified)", "values": [
      {"measurement": "T/C", "setting": "[5]", "value": "100 % of control"},
      {"measurement": "T/C", "setting": "[6]", "value": "95 % of control"},
      {"measurement": "T/C", "setting": "[2]", "value": "100 % of control"}
    ]},
    {"smiles": "CSc1ncnc2nc[nH]c12", "values": [
      {"measurement": "T/C", "setting": "[7]", "value": "104 % of control and 105 % of control"},
      {"measurement": "T/C", "setting": "dose: 50.0 mg/kg/injection, vehicle: saline", "value": "100 % of control and 104 % of control"},
      {"measurement": "T/C", "setting": "[8]", "value": "100 % of control"},
      {"measurement": "T/C", "setting": "[4]", "value": "105 % of control and 109 % of control"}
    ]},
    {"smiles": "CN[C@H]1CCc2cc(OC)c(OC)c(OC)c2-c2ccc(OC)c(=O)cc21", "values": [
      {"measurement": "T/C", "setting": "dose: 0.63 mg/kg/injection, vehicle: other", "value": "94 % of control and 110 % of control"},
      {"measurement": "T/C", "setting": "dose: 1.25 mg/kg/injection, vehicle: other", "value": "100 % of control and 110 % of control"},
      {"measurement": "T/C", "setting": "dose: 2.5 mg/kg/injection, vehicle: other", "value": "100 % of control and 120 % of control"},
      {"measurement": "T/C", "setting": "dose: 5.0 mg/kg/injection, vehicle: other", "value": "88 % of control and 115 % of control"}
    ]},
    {"smiles": "OCC1OC(n2cnc3c(Cl)ncnc32)C(O)C1O", "note": "(stereo unspecified)", "values": [
      {"measurement": "T/C", "setting": "dose: 62.5 mg/kg/injection, vehicle: saline", "value": "94 % of control"},
      {"measurement": "T/C", "setting": "dose: 125.0 mg/kg/injection, vehicle: saline", "value": "100 % of control"},
      {"measurement": "T/C", "setting": "dose: 250.0 mg/kg/injection, vehicle: saline", "value": "90 % of control and 94 % of control"},
      {"measurement": "T/C", "setting": "dose: 500.0 mg/kg/injection, vehicle: saline", "value": "90 % of control and 111 % of control"}
    ]},
    {"smiles": "Cn1c(N)nc2nc[nH]c2c1=S", "values": [
      {"measurement": "T/C", "setting": "[6]", "value": "100 % of control"},
      {"measurement": "T/C", "setting": "[2]", "value": "100 % of control"},
      {"measurement": "T/C", "setting": "dose: 80.0 mg/kg/injection, vehicle: saline", "value": "95 % of control"},
      {"measurement": "T/C", "setting": "dose: 160.0 mg/kg/injection, vehicle: saline", "value": "90 % of control"}
    ]},
    {"smiles": "COc1cc(-c2ccc(Nc3ccccc3C(=O)O)c(OC)c2)ccc1Nc1ccccc1C(=O)O", "values": [
      {"measurement": "T/C", "setting": "dose: 67.0 mg/kg/injection, vehicle: saline", "value": "159 % of control"},
      {"measurement": "T/C", "setting": "[8]", "value": "159 % of control"}
    ]},
    {"smiles": "C[C@H]1C(=O)O[C@@H]2CCN3CC=C(COC(=O)[C@](C)(O)[C@@]1(C)O)[C@H]23", "values": [
      {"measurement": "T/C", "setting": "dose: 3.13 mg/kg/injection, vehicle: saline", "value": "90 % of control and 100 % of control"},
      {"measurement": "T/C", "setting": "[9]", "value": "95 % of control"},
      {"measurement": "T/C", "setting": "[10]", "value": "95 % of control and 100 % of control"},
      {"measurement": "T/C", "setting": "[7]", "value": "105 % of control and 109 % of control"}
    ]},
    {"smiles": "O=NN(CCCl)C(=O)NCCCl", "values": [
      {"measurement": "T/C", "setting": "[9]", "value": "225 % of control and 245 % of control"},
      {"measurement": "T/C", "setting": "[10]", "value": "215 % of control and 300 % of control"},
      {"measurement": "T/C", "setting": "[7]", "value": "110 % of control"}
    ]},
    {"smiles": "Nc1nc(N)c2nc(CNc3ccc(C(=O)NC(CCC(=O)O)C(=O)O)cc3)cnc2n1", "note": "(stereo unspecified)", "values": [
      {"measurement": "T/C", "setting": "dose: 25.0 micrograms/kg/injection, vehicle: other", "value": "112 % of control"},
      {"measurement": "T/C", "setting": "dose: 50.0 micrograms/kg/injection, vehicle: other", "value": "112 % of control"},
      {"measurement": "T/C", "setting": "dose: 200.0 micrograms/kg/injection, vehicle: other", "value": "150 % of control"}
    ]},
    {"smiles": "C[C@@H]1C[C@@H]([C@H](O)CC2CC(=O)NC(=O)C2)C(=O)[C@@H](C)C1", "values": [
      {"measurement": "T/C", "setting": "[3]", "value": "93 % of control and 100 % of control"},
      {"measurement": "T/C", "setting": "[5]", "value": "100 % of control"},
      {"measurement": "T/C", "setting": "[6]", "value": "100 % of control"},
      {"measurement": "T/C", "setting": "[2]", "value": "112 % of control"}
    ]}
  ]
}
